# Measurements reported in ChEMBL document CHEMBL1201862, “PubChem BioAssay data set” (2004).
# “And” between values parts separate entries of the source, which are not always exact repeats. Equal values may be shown once. The source made the active and inactive calls.
# Key:
# [1] = Trypanosoma cruzi growth suppression in host cells – NIH3T3 host cells, beta-gal luminescence, confirmation (AID 2044); type: functional, cell-based;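 also: intracellular parasites grown in NIH/3T3 mouse fibroblasts as host cells; luminescent beta-galactosidase reporter signal from transgenic T. cruzi replicating inside host cells; inhibitors lower the luminescence signal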
# [2] = NIH3T3 cell viability loss – ATP luminescence, mouse fibroblasts, counter-screen, dose response (AID 2010); type: functional, cell-based;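 also: cells exposed to compound for about 90 hours before reading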
# [3] = molecular target: T1, Cytochrome P450 1A2 (Homo sapiens, UniProt P05177);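 also: PubChem cytochrome P450 panel assay, CYP1A2 panel member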
# T1 sequence (P05177 whole entry): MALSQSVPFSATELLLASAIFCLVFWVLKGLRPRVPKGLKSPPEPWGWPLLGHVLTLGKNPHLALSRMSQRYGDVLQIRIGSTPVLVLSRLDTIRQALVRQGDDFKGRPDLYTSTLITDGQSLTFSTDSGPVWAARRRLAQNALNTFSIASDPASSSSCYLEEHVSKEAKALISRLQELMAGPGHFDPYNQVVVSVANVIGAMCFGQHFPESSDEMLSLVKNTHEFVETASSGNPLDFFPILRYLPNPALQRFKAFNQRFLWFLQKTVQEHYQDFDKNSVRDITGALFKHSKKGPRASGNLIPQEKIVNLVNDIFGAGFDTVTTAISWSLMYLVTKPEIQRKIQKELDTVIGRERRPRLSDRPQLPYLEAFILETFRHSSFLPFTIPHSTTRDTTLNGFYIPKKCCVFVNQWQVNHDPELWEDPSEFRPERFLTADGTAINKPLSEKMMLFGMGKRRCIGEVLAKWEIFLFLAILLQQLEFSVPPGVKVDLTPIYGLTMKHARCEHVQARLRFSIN
# [4] = molecular target: Cytochrome P450 2D6 (Homo sapiens, UniProt P10635);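 also: CYP2D6 member of a cytochrome P450 panel assay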
# Sequence of Cytochrome P450 2D6 (P10635 whole entry): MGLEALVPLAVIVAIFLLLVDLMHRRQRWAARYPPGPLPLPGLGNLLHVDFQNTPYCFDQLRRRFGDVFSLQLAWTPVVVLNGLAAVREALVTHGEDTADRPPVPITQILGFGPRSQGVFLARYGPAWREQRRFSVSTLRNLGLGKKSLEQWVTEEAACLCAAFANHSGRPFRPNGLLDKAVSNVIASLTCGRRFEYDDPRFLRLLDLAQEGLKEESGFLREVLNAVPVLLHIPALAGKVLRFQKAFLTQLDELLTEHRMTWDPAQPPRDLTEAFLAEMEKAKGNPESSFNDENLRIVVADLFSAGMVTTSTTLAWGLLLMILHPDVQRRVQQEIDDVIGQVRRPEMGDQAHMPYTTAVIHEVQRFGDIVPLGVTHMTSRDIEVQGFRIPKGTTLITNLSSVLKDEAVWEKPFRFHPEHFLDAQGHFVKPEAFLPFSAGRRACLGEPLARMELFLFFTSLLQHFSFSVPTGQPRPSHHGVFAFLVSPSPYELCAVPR
# [5] = molecular target: Cytochrome P450 2C19 (Homo sapiens, UniProt P33261); assay: Cytochrome panel assay with activity outcomes. Panel member name: p450-cyp2c19 Compounds with AC50 equal or less than 10 uM are considered active; type: functional
# Sequence of Cytochrome P450 2C19 (P33261 whole entry): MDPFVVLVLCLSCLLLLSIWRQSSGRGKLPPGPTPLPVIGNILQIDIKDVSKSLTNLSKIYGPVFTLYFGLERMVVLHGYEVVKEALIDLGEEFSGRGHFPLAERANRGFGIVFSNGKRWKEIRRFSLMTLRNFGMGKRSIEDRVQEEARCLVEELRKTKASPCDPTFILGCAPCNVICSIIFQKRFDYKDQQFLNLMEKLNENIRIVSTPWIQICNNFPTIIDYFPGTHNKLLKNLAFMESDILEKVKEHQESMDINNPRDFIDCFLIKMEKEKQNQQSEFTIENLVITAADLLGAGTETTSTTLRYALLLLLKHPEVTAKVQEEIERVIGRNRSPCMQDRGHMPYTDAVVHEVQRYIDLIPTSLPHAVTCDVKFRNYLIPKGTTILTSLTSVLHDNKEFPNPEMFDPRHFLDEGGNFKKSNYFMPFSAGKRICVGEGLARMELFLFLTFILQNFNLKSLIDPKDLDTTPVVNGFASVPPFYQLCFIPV
# [6] = molecular target: Cytochrome P450 2C9 (Homo sapiens, UniProt P11712)
# Sequence of Cytochrome P450 2C9 (P11712 whole entry): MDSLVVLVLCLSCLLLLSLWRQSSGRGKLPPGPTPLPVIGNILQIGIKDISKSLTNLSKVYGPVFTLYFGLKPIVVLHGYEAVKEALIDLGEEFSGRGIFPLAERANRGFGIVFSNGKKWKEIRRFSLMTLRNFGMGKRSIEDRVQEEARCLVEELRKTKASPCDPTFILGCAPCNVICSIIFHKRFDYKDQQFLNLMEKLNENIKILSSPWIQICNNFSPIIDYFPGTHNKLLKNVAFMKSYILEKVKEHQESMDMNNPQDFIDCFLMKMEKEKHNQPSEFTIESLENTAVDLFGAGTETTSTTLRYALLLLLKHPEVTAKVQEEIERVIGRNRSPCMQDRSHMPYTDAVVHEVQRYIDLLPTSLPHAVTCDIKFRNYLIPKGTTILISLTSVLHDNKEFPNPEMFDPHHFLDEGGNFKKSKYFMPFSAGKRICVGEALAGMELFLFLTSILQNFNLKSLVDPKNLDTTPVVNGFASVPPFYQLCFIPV
compound,measurement,setting,value
CC(CC(=O)N1CCN(c2ccc(C(F)(F)F)cn2)CC1)n1ccnc1 (configuration not stated),EC50,[1],1.51 µM (active)
same,EC50,[2],> 60 µM (not active)
COc1ccc(OC)c2sc(N3CCN(C(=O)c4ccc([N+](=O)[O-])s4)CC3)nc12,EC50,[1],1.8 µM (active)
same,EC50,[2],> 60 µM (not active)
Cc1nc2cnc(N3CCN(C)CC3)nc2n(CCC#N)c1=O,AC50,[3],12.6 µM (inconclusive)
O=C(NCCOC12CC3CC(CC(C3)C1)C2)c1cccc(Br)c1,AC50,[3],17.8 µM (inconclusive)
Cc1cccc(-c2nsc(SCC(=O)Nc3nccs3)n2)c1,AC50,[4],8.91 µM (inconclusive)
CCn1ccc(C(=O)Oc2ccc(Cl)cc2)n1,AC50,[5]; read-out: AC50,11.2 µM (inconclusive)
same,AC50,[4],22.4 µM (inconclusive)
same,AC50,[6],8.91 µM (inconclusive)
c1ccc2c(c1)ncn2-c1ccc(-c2ccnc(-c3ccncc3)n2)cc1,AC50,[4],1.12 µM (inconclusive)
O=C(CN1CCC(c2nc3ccccc3s2)CC1)NCc1ccccc1,EC50,[1],0.237 µM (active)
same,EC50,[2],> 60 µM (not active)
COC(=O)[C@@]1(Cc2ccc(F)cc2)[C@H]2c3cc(C(=O)N4CCCC4)n(CCN4CNCC4=O)c3C[C@H]2CN1C(=O)c1ccccc1,AC50,[5]; read-out: AC50,39.8 µM (inconclusive)
same,AC50,[4],39.8 µM (inconclusive)
same,AC50,[3],15.8 µM (inconclusive)
COc1cc(C(=O)Nc2nc(-c3ccc(F)cc3)cs2)ccc1OCC(=O)N1CCOCC1,EC50,[1],1.36 µM (active)
same,EC50,[2],> 60 µM (not active)
Cc1cccc(CNc2nc(-c3c(C)noc3C)nc3ccccc23)c1,AC50,[5]; read-out: AC50,3.16 µM (inconclusive)
same,AC50,[6],0.631 µM (inconclusive)
c1cncc(CNc2ncncc2-c2ccc3c(c2)OCO3)c1,AC50,[6],0.794 µM (inconclusive)
CCCCNC(=O)C1CC(=O)N(CCC(C)C)C1 (configuration not stated),AC50,[5]; read-out: AC50,25.1 µM (inconclusive)
CCNc1ncc2nc(-c3ccc(Cl)cc3)c(=O)n(C)c2n1,AC50,[4],25.1 µM (inconclusive)
Cc1ccc(C)c(C(=O)CN2C(=O)c3ccccc3S2(=O)=O)c1,AC50,[4],0.631 µM (inconclusive)
Cc1cc(C)n(-c2nc(NC(C)C)nc(NC(C)C)n2)n1,AC50,[5]; read-out: AC50,35.5 µM (inconclusive)
Cc1ccc(-c2nnc(-c3ccccc3S(=O)(=O)Cc3ccc(Cl)cc3)o2)cc1,AC50,[5]; read-out: AC50,7.94 µM (inconclusive)
same,AC50,[4],0.0355 µM (inconclusive)
same,AC50,[6],1.78 µM (inconclusive)
CCOc1cc(NC(=O)CC(C)C)c(OCC)cc1N=C(S)Nc1cccc(C)c1,AC50,[5]; read-out: AC50,2.51 µM (inconclusive)
Cc1cn2c(-c3ccncc3)nnc2s1,AC50,[3],10 µM (inconclusive)
O=C(c1cnccn1)N1CCC2(CCN(Cc3ccncc3)CC2)CC1,AC50,[3],25.1 µM (inconclusive)
CCOC(=O)N1CCN(S(=O)(=O)c2ccc3ncc(C(=O)O)c(O)c3c2)CC1,AC50,[6],15.8 µM (inconclusive)
CCCCCCCNC(=O)c1cc(-c2ccncc2)nc2ccccc12,EC50,[1],2.98 µM (active)
same,EC50,[2],> 60 µM (not active)
O=C(O)c1ccccc1Nc1ccccc1 [FENAMIC ACID],AC50,[3],15.8 µM (inconclusive)
same,AC50,[6],15.8 µM (inconclusive)
COC(=O)[C@@]1(Cc2ccc(F)cc2)[C@H]2c3cc(C(=O)N(C)C)n(CCO)c3C[C@H]2CN1C(=O)c1ccccc1,AC50,[5]; read-out: AC50,25.1 µM (inconclusive)
same,AC50,[4],25.1 µM (inconclusive)
CN(C)c1ccc(/C=C2/C(=O)N(c3ccc([N+](=O)[O-])cc3)N=C2N2CCOCC2)cc1,AC50,[5]; read-out: AC50,0.0224 µM (inconclusive)
CCNc1ncc2nc(C)c(=O)n(C[C@H]3CCCO3)c2n1,AC50,[4],39.8 µM (inconclusive)
CN(C)CCCNc1c2c(nc3ccc(Cl)cc13)CCCC2,AC50,[3],3.16 µM (inconclusive)
NC(=O)[C@@H]1CCCN1Cc1ccc2c(c1)OCO2,AC50,[5]; read-out: AC50,5.01 µM (inconclusive)
same,AC50,[4],3.98 µM (inconclusive)
same,AC50,[3],3.16 µM (inconclusive)
O=S(=O)(c1ccc(F)cc1)n1ccc(-c2cnc(-c3ccccc3)s2)n1,AC50,[4],17.8 µM (inconclusive)
COc1cc(CCN2C(=O)c3cccc4cccc(c34)C2=O)c(S(=O)(=O)N2CCC(C)CC2)cc1OC,EC50,[1],1.51 µM (active)
same,EC50,[2],> 60 µM (not active)
C[N+](C)([O-])CCC=C1c2ccccc2CCc2ccccc21 [AMITRIPTYLINOXIDE],AC50,[3],0.794 µM (inconclusive)
COc1ccc2c(c1)s/c(=N/C(=O)CS(=O)(=O)c1ccc(F)cc1)n2C,EC50,[1],0.328 µM (active)
same,EC50,[2],> 30 µM (not active)
Cc1oc(-c2ccccc2Cl)nc1CN1CCCCC1c1cccnc1 (configuration not stated),EC50,[1],1.2 µM (active)
same,EC50,[2],> 60 µM (inconclusive)
O=c1cnc2cnc(Nc3ccccc3)nc2n1Cc1cccs1,AC50,[6],3.16 µM (inconclusive)
CCn1c(=O)c2c(nc3n2CCS3)n(C)c1=O,AC50,[5]; read-out: AC50,10 µM (inconclusive)
same,AC50,[6],0.00891 µM (inconclusive)
CCOC(=O)CNc1nc(C(C)(C)C)nc2c1nnn2Cc1ccccc1Cl,EC50,[1],3.11 µM (active)
same,EC50,[2],> 60 µM (not active)
COc1ccc(Cc2nccc3cc(OC)c(OC)cc23)cc1OC [PAPAVERINE],AC50,[5]; read-out: AC50,10 µM (inconclusive) and 3.98 µM (inconclusive)
same,AC50,[4],10 µM (inconclusive) and 25.1 µM (inconclusive)
same,AC50,[3],10 µM (inconclusive) and 25.1 µM (inconclusive)
COc1ccc2c(c1)c(C(=O)N/N=C/c1cccc(Br)c1)c(C)n2C,EC50,[1],0.324 µM (active)
same,EC50,[2],> 60 µM (not active)
CC(C)C(=O)NCCn1ccc2ccccc21,AC50,[3],20 µM (inconclusive)
CC(C)c1cc(C(C)C)c(S(=O)(=O)N2c3ccccc3[C@@]3(Br)C[C@H]4C(=O)N[C@@H](Cc5ccccc5)C(=O)N4[C@@H]23)c(C(C)C)c1,EC50,[1],2.08 µM (active)
same,EC50,[2],> 60 µM (not active)
Cc1nc(NC(=O)c2ccccc2)sc1-c1csc(Nc2ccc(Cl)cc2Cl)n1,AC50,[4],12.6 µM (inconclusive)
O=c1[nH]n(-c2cccc(Cl)c2)c2ncccc12,AC50,[5]; read-out: AC50,39.8 µM (inconclusive)
Cc1ccc(Cl)cc1N=C(S)N(Cc1ccccc1)Cc1cccnc1,EC50,[1],0.785 µM (active)
same,EC50,[2],> 60 µM (not active)
CC(=O)NCCC(=O)Nc1nc(-c2ccc3ccccc3c2)cs1,EC50,[1],2 µM (active)
same,EC50,[2],> 60 µM (not active)
Cc1cccc(NC(=O)CSc2nc3ccccc3c3nc(CCc4c(C)n[nH]c4C)nn23)c1,AC50,[4],8.91 µM (inconclusive)
COc1ccc(OC)c(CNc2ccc3c(c2)CCC3)c1,EC50,[1],2.08 µM (active)
same,EC50,[2],> 60 µM (not active)
Cc1cnc(CNc2ncnc3ccc(-c4ccc(C(=O)N(C)C)cc4)cc23)cn1,AC50,[3],15.8 µM (inconclusive)
COc1cccc(NC(=O)CSc2nnc(CN3CCOCC3)n2C)c1,AC50,[5]; read-out: AC50,28.2 µM (inconclusive)
COC(=O)CNC(=O)CN1C(=O)N(c2ccc(Cl)cc2)C(N(O)C(=O)Nc2ccc(Cl)cc2)C1(C)C (configuration not stated),AC50,[4],15.8 µM (inconclusive)
same,AC50,[3],22.4 µM (inconclusive)
O=C(N1CCOCC1)N1CCN(c2ccccc2)CC1,AC50,[6],4.47 µM (inconclusive)
Cc1ccc(C(=O)Nc2cccc(-c3cnc4ccccc4n3)c2)cc1,AC50,[5]; read-out: AC50,1.58 µM (inconclusive)
same,AC50,[6],1 µM (inconclusive)
CN1CCN(c2ncc3ncc(=O)n(CCC#N)c3n2)CC1,AC50,[5],inconclusive
same,AC50,[3],31.6 µM (inconclusive)
CCOC(=O)c1cc(C#N)c(N2CCN(C)CC2)nc1-c1ccccc1,EC50,[1],1.3 µM (active)
same,EC50,[2],> 60 µM (not active)
CCC(C)(C(=O)NC1CCCC1)N(C(=O)c1ccccn1)c1ccccc1 (configuration not stated),AC50,[5]; read-out: AC50,8.91 µM (inconclusive)
same,AC50,[3],10 µM (inconclusive)
